Usually IC50 stands for the concentration at which inhibition is half-maximal.

Experiment [1] addresses Human Axl (residues H473-A894 with Q764R) (Homo sapiens (Human), UniProt P30530, Q764R). As to the kind of experiment: Human AXL kinase assay (33P radiometric, KinaseProfiler). It is filed as biochemical. As to conditions: 10 μM ATP.
Experiment [2] concerns the target AXL (Homo sapiens (Human), UniProt P30530). As to the kind of experiment: AXL autophosphorylation ELISA in A-172 cells. The following applies: cellular, Gas6 stimulated. It is filed as cell-based. In short, it runs like this: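 Serum-starved (24 h) A-172 glioblastoma cells pretreated 1 h with compounds (8-point curve, 0.3% DMSO), then stimulated 15 min with 1 μg/mL Gas6. Lysate phospho-AXL measured by sandwich ELISA against a phospho-AXL standard; IC50 from 4-parameter logistic fit between DMSO and reference-inhibitor controls.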
Background: ELISA stands for enzyme-linked immunosorbent assay.

For experiment [3], the target named is Mer (Homo sapiens (Human), UniProt Q12866). Put plainly: Mer autophosphorylation ELISA in transient transfected 293A cells. As to conditions: cellular, MERTK transfected 293A cells. It is filed as cell-based. The essentials:
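293A cells transiently transfected with human MERTK DNA, then treated 1 h with 8-point compound dilutions in serum-free medium (0.3% DMSO). Phospho-Mer in lysates quantified by sandwich ELISA against phospho-Mer standard; normalised to DMSO (100%) and reference inhibitor (0%), IC50 from 4-parameter logistic fit.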

Structures are written as SMILES.

Mer, sequence (Q12866 21-999): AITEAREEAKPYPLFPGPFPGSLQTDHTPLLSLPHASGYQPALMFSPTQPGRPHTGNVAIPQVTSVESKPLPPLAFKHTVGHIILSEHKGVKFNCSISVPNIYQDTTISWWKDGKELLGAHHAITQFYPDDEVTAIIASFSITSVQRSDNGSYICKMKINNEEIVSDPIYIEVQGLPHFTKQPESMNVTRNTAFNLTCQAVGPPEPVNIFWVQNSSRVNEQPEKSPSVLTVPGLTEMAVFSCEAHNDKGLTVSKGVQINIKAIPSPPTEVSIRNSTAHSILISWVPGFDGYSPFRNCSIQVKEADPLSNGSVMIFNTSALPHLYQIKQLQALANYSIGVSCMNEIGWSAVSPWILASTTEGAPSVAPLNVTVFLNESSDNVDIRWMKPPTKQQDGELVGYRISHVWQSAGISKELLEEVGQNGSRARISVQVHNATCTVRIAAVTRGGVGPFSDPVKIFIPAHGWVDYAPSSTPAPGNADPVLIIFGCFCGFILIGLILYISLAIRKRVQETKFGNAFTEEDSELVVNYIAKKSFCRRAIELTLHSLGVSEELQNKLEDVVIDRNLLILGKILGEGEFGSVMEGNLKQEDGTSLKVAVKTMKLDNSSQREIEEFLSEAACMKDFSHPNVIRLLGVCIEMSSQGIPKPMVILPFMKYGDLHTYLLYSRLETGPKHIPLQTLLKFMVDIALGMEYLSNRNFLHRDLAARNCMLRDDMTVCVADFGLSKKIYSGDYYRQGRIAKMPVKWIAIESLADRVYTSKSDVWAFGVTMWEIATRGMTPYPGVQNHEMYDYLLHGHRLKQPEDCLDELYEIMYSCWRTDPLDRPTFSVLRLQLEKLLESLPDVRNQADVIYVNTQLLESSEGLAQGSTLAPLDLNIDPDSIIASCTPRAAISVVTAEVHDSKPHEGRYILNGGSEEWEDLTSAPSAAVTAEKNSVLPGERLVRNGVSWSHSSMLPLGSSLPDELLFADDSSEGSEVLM
AXL, sequence (P30530 26-894): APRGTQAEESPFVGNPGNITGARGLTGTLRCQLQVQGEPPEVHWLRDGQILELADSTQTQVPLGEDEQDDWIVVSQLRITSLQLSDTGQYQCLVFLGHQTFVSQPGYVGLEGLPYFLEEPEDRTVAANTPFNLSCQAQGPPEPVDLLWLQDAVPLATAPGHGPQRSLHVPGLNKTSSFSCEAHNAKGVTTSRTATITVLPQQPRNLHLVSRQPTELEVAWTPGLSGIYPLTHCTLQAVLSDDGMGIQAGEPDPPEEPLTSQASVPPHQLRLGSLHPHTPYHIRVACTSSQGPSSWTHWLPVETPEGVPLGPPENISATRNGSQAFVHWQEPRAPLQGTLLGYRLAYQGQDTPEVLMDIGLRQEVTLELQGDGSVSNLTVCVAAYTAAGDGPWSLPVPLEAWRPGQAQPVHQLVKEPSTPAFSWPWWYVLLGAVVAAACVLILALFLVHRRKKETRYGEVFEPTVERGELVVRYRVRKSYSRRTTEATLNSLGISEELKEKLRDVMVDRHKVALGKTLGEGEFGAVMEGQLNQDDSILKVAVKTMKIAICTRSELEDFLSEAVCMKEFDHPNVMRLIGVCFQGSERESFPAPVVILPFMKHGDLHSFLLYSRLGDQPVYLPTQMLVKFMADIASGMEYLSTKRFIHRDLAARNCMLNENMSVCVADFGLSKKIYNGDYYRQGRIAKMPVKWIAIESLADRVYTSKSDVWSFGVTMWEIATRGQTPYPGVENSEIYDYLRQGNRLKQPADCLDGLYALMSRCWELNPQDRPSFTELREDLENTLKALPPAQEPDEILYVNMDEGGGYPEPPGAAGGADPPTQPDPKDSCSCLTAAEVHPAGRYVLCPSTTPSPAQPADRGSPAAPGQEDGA
Human Axl (residues H473-A894 with Q764R), sequence (P30530 473-894 Q764R): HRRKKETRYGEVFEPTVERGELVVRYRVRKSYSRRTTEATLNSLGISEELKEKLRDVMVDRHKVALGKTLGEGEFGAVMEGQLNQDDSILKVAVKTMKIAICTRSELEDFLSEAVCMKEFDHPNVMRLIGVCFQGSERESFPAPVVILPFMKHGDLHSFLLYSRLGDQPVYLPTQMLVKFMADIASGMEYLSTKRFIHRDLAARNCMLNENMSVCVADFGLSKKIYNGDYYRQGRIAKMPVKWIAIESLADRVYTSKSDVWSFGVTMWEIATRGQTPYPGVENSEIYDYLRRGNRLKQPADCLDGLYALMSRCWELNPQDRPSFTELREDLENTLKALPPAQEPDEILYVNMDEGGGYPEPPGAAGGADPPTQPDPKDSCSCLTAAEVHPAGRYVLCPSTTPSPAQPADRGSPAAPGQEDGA

With `CNC(=O)c1ccc2c(Oc3ccc(NC(=O)C4(C(=O)Nc5ccc(F)cc5)CC4)cc3)ccnc2c1` [Compound 165, 1-N′-(4-fluorophenyl)-1-N-[4-[7-(methylcarbamoyl)quinolin-4-yl]oxyphenyl]cyclopropane-1,1-dicarboxamide], the IC50 in experiment [1] was ≤ 10 nM; in experiment [2], 10 to 100 nM; in experiment [3], 10 to 100 nM.
As for `NC(=O)c1ccc2c(Oc3ccc(NC(=O)C4(C(=O)Nc5ccc(F)cc5)CC4)cc3)ccnc2c1` [Compound 164, 1-N-[4-(7-carbamoylquinolin-4-yl)oxyphenyl]-1-N′-(4-fluorophenyl)cyclopropane-1,1-dicarboxamide], the IC50 in experiment [1] was ≤ 10 nM; in experiment [2] it was ≤ 10 nM; in experiment [3] it was 10 to 100 nM.
In the case of `COc1cc2nccc(Oc3ccc(NC(=O)C4(C(=O)Nc5ccc(F)cc5)CC4)cc3)c2cc1-c1nnco1` [Compound 220, 1-N′-(4-Fluorophenyl)-1-N-[4-[7-methoxy-6-(1,3,4-oxadiazol-2-yl)quinolin-4-yl]oxyphenyl]cyclopropane-1,1-dicarboxamide], the concentration for half-maximal inhibition (IC50) in experiment [1], in experiment [2] and in experiment [3] was ≤ 10 nM in each case.
With `CNC(=O)c1cc2c(Oc3ccc(NC(=O)C4(C(=O)Nc5ccc(F)cc5)CC4)cc3F)ccnc2cc1OC` [Compound 135, 1-N′-[3-fluoro-4-[7-methoxy-6-(methylcarbamoyl)quinolin-4-yl]oxyphenyl]-1-N-(4-fluorophenyl)cyclopropane-1,1-dicarboxamide], the half-maximal inhibitory concentration (IC50) in experiment [1], in experiment [2] and in experiment [3] was ≤ 10 nM each time.
`NC(=O)c1cc2c(Oc3ccc(NC(=O)C4(C(=O)Nc5ccc(F)cc5)CC4)cc3)ccnc2cc1OCCCN1CCOCC1` [Compound 98, 1-N-[4-[6-carbamoyl-7-(3-morpholin-4-ylpropoxy)quinolin-4-yl]oxyphenyl]-1-N′-(4-fluorophenyl)cyclopropane-1,1-dicarboxamide]: the values for the IC50 in experiment [1], in experiment [2] and in experiment [3] were ≤ 10 nM, ≤ 10 nM and 10 to 100 nM, respectively.
Consider `COc1cc2nccc(Oc3ccc(NC(=O)C4(C(=O)Nc5ccc(F)cc5)CC4)cc3F)c2cc1C(N)=O` [Compound 133, 1-N′-[4-(6-carbamoyl-7-methoxyquinolin-4-yl)oxy-3-fluorophenyl]-1-N-(4-fluorophenyl)cyclopropane-1,1-dicarboxamide], for which the 50% inhibitory concentration (IC50) in experiment [1], in experiment [2] and in experiment [3] was ≤ 10 nM each time.
Turning to `COc1cc2nccc(Oc3ccc(NC(=O)C4(C(=O)Nc5ccc(F)cc5)CC4)cc3)c2cc1-c1ccn[nH]1` [Compound 185, 1-N′-(4-fluorophenyl)-1-N-[4-[7-methoxy-6-(1H-pyrazol-5-yl)quinolin-4-yl]oxyphenyl]cyclopropane-1,1-dicarboxamide], the figures for the IC50 in experiment [1], in experiment [2] and in experiment [3] were 10 to 100 nM, 10 to 100 nM and ≤ 10 nM, respectively.
Take `Cc1cc2c(Oc3ccc(NC(=O)C4(C(=O)Nc5ccc(F)cc5)CC4)cc3)ccnc2cc1C(N)=O` [Compound 142, 1-N-[4-(7-carbamoyl-6-methylquinolin-4-yl)oxyphenyl]-1-N′-(4-fluorophenyl)cyclopropane-1,1-dicarboxamide]: the IC50 in experiment [1] is ≤ 10 nM; in experiment [2], 10 to 100 nM; in experiment [3] it was 10 to 100 nM.
For `COc1cc2nccc(Oc3ccc(NC(=O)C4(C(=O)Nc5ccc(F)cc5)CC4)cc3Cl)c2cc1C(N)=O` [Compound 132, 1-N′-[4-(6-carbamoyl-7-methoxyquinolin-4-yl)oxy-3-chlorophenyl]-1-N-(4-fluorophenyl)cyclopropane-1,1-dicarboxamide], the 50% inhibitory concentration (IC50) in experiment [1], in experiment [2] and in experiment [3] was ≤ 10 nM each time.
For `COc1cc2nccc(Oc3ccc(NC(=O)C4(C(=O)Nc5ccc(F)cc5)CC4)cc3)c2cc1-c1cnn(C)c1` [Compound 182, 1-N′-(4-fluorophenyl)-1-N-[4-[7-methoxy-6-(1-methylpyrazol-4-yl)quinolin-4-yl]oxyphenyl]cyclopropane-1,1-dicarboxamide], the figures for the IC50 in experiment [1], in experiment [2] and in experiment [3] were 10 to 100 nM, ≤ 10 nM and ≤ 10 nM, respectively.
Regarding `COc1cc2nccc(Oc3ccc(NC(=O)C4(C(=O)Nc5ccc(F)cc5)CC4)cc3)c2cc1S(N)(=O)=O` [Compound 206, 1-N′-(4-Fluorophenyl)-1-N-[4-(7-methoxy-6-sulfamoylquinolin-4-yl)oxyphenyl]cyclopropane-1,1-dicarboxamide], the IC50 was ≤ 10 nM in experiment [1], ≤ 10 nM in experiment [2] and 10 to 100 nM in experiment [3].
On to `CNC(=O)c1cc2c(Oc3ccc(NC(=O)C4(C(=O)Nc5ccc(F)cc5)CC4)cc3Cl)ccnc2cc1OC` [Compound 134, 1-N′-[3-chloro-4-[7-methoxy-6-(methylcarbamoyl)quinolin-4-yl]oxyphenyl]-1-N-(4-fluorophenyl)cyclopropane-1,1-dicarboxamide], for which the IC50 in experiment [1], in experiment [2] and in experiment [3] was ≤ 10 nM in each case.
For the compound `COc1cc2nccc(Oc3ccc(NC(=O)C4(C(=O)Nc5ccc(F)cc5)CC4)cc3)c2cc1-c1ncco1` [Compound 45, 1-N′-(4-fluorophenyl)-1-N-[4-[7-methoxy-6-(1,3-oxazol-2-yl)quinolin-4-yl]oxyphenyl]cyclopropane-1,1-dicarboxamide], the IC50 in experiment [2] and in experiment [3] was ≤ 10 nM in each case.
As to `COc1cc2nccc(Oc3ccc(NC(=O)C4(C(=O)Nc5ccc(F)cc5)CC4)cc3)c2cc1-c1ncc[nH]1` [Compound 191, 1-N′-(4-Fluorophenyl)-1-N-[4-[6-(1H-imidazol-2-yl)-7-methoxyquinolin-4-yl]oxyphenyl]cyclopropane-1,1-dicarboxamide], the half-inhibitory concentration (IC50) in experiment [2] and in experiment [3] was ≤ 10 nM in each case.
